Usually melting point stands for the temperature of the solid-liquid transition. Usually EC50 stands for the concentration needed to bring the measured effect to its halfway point. A word on the Emax: it is the maximal effect, on the per cent scale that the assay sets.

Some results are limits rather than exact numbers.

Consider 31 compounds from US20020028836A1, “Potassium channel openers” (priority 2000, published 2002).

Data set [1] concerns primary cultured guinea-pig urinary bladder (GPB) cells. In words: Membrane hyperpolarization (MHP) assay, DiBAC(4)3 / FLIPR. The class given is cell-based. The following applies: Cavia porcellus; for EC50: concentration that elicits 50% of the maximal response for the test sample; for Emax: maximal steady-state hyperpolarization, normalized to response with 10 μM P1075 (100%). The essentials:
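Primary smooth-muscle cells from male guinea-pig bladder, grown to confluence, loaded 30 min at 37° C with 5 μM DiBAC(4)3 in HEPES buffer pH 7.4. Fluorescence drop on FLIPR followed 25 min after compound; steady-state hyperpolarization normalized to 10 μM P1075 (100%), EC50 from four-parameter fit of five concentrations.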

Regarding `Cc1ccc(C(=O)NC(NC(=S)Nc2cccc(C(F)(F)F)c2F)C(F)(F)F)cc1` (stereo not shown) [Example 5, 4-methyl-N-[2,2,2-trifluoro-1-({[2-fluoro-3-(trifluoromethyl)anilino]carbothioyl}amino)ethyl]benzamide], the melting point lay within 179 to 181 °C. In data set [1], this compound displayed an EC50 of 1.08 µM and an Emax of 106%.
`COc1ccc(NC(=S)NC(NC(=O)c2ccc(C)cc2)C(F)(F)F)cc1` (stereo not shown) [Example 6, 4-methyl-N-(2,2,2-trifluoro-1-{[(4-methoxyanilino)carbothioyl]amino}ethyl)benzamide] gave a melting point of 193 to 194 °C. In data set [1], the EC50 worked out at 1.55 µM and the maximal response (Emax) amounted to 107%.
For `Cc1ccc(C(=O)NC(NC(=S)Nc2ccc(Cl)nc2)C(F)(F)F)cc1` (stereo not shown) [Example 7, N-[1-({[(6-chloro-3-pyridinyl)amino]carbothioyl}amino)-2,2,2-trifluoroethyl]-4-methylbenzamide] the same measures were 199 to 200 °C, 0.45 µM and 101%.
Taken in the same sequence, the figures for `COc1ccccc1NC(=S)NC(NC(=O)c1ccc(C)cc1)C(F)(F)F` (stereo not shown) [Example 8, 4-methyl-N-(2,2,2-trifluoro-1-{[(2-methoxyanilino)carbothioyl]amino}ethyl)benzamide] were 212 to 214 °C, at least 10 µM and 10%.
For `Cc1ccc(NC(=S)NC(NC(=O)c2ccc(C)cc2)C(F)(F)F)cc1` (stereo not shown) [Example 10, 4-methyl-N-{2,2,2-trifluoro-1-[(4-toluidinocarbothioyl)amino]ethyl}benzamide] the same measures were 192 to 193 °C, 0.7 µM and 65%.
Regarding `COc1cccc(NC(=S)NC(NC(=O)c2ccc(C)cc2)C(F)(F)F)c1` (stereo not shown) [Example 12, 4-methyl-N-(2,2,2-trifluoro-1-{[(3-methoxyanilino)carbothioyl]amino}ethyl)benzamide], the melting point was 206 to 208 °C. Further, in data set [1], the EC50 is at least 10 µM and the Emax worked out at 4%.
In the case of `CC(C)(C)C(NC(=O)c1ccc(Cl)cc1)NC(=NC#N)NCc1ccc(Cl)cc1` (stereo not shown) [Example 79, 4-chloro-N-(1-{[[(4-chlorobenzyl)amino](cyanoimino)methyl]amino}-2,2-dimethylpropyl)benzamide], the melting point fell in the range of 173 to 175 °C.
Still for that read-out and setting: next, `CC(C)(C)C(NC(=O)c1ccc(Cl)cc1)NC(=NC#N)NCc1cccnc1` (stereo not shown) [Example 80, 4-chloro-N-[1-({(cyanoimino)[(3-pyridinylmethyl)amino]methyl}amino)-2,2-dimethylpropyl]benzamide]: 188 to 189 °C; `CC(C)(C)C(NC(=O)c1ccc(Cl)cc1)NC(=NC#N)NCc1ccncc1` (stereo not shown) [Example 81, 4-chloro-N-[1-({(cyanoimino)[(4-pyridinylmethyl)amino]methyl}amino)-2,2-dimethylpropyl]benzamide]: 189 to 191 °C; `CC(C)(C)C(NC(=O)c1ccc(Cl)cc1)NC(=NC#N)NCc1ccccn1` (stereo not shown) [Example 82, 4-chloro-N-[1-({(cyanoimino)[(2-pyridinylmethyl)amino]methyl}amino)-2,2-dimethylpropyl]benzamide]: 184 to 185 °C.
The same measure, in the same setting: next, `CC(C)(C)C(NC(=O)c1ccc(F)cc1)NC(=NC#N)Nc1cccnc1` (stereo not shown) [Example 107, N-(1-{[(cyanoimino)(3-pyridinylamino)methyl]amino}-2,2-dimethylpropyl)-4-fluorobenzamide]: 195 to 196 °C.
On the same count and under the same terms, next, `CN(C(=NC#N)Nc1cccnc1)C(NC(=O)c1ccc(Cl)cc1)C(C)(C)C` (stereo not shown) [Example 111, 4-chloro-N-{1-[[(cyanoimino)(3-pyridinylamino)methyl](methyl)amino]-2,2-dimethylpropyl}benzamide]: 127 to 129 °C; `N#CN=C(Nc1cccnc1)NC(NC(=O)c1ccc(I)cc1)C(Cl)(Cl)Cl` (stereo not shown) [Example 114, 4-iodo-N-(2,2,2-trichloro-1-{[(cyanoimino)(3-pyridinylamino)methyl]amino}ethyl)benzamide]: 208 to 210 °C; `CCCC(Cl)(Cl)C(NC(=O)c1ccc(Cl)cc1)NC(=NC#N)Nc1cccnc1` (stereo not shown) [Example 115, 4-chloro-N-(2,2-dichloro-1-{[(cyanoimino)(3-pyridinylamino)methyl]amino}pentyl)benzamide]: 192 to 193 °C.
On to `N#CN=C(Nc1cccnc1)NC(NC(=O)c1cccc(Cl)c1)C(F)(F)C(F)(F)F` (stereo not shown) [Example 122, 3-chloro-N-(1-{[(cyanoimino)(3-pyridinylamino)methyl]amino}-2,2,3,3,3-pentafluoropropyl)benzamide], for which the melting point fell in the range of 183 to 185 °C.
Take `CCCC(Cl)(Cl)C(NC(=O)c1ccc(Cl)cc1)NC(=N[N+](=O)[O-])Nc1cccnc1` (stereo not shown) [Example 136, 4-chloro-N-(2,2-dichloro-1-{[(nitroimino)(3-pyridinylamino)methyl]amino}pentyl)benzamide]: the melting point was 198 to 200 °C.
As to `CC(Cl)(Cl)C(NC(=O)c1ccc(Cl)cc1)NC(=N[N+](=O)[O-])Nc1cccnc1` (stereo not shown) [Example 137, 4-chloro-N-(2,2-dichloro-1-{[(nitroimino)(3-pyridinylamino)methyl]amino}propyl)benzamide], the melting point fell in the range of 170 to 172 °C.
Same read-out and setting: the result for `CC(Cl)(Cl)C(NC(=O)c1cccc(Cl)c1)NC(=N[N+](=O)[O-])Nc1cccnc1` (stereo not shown) [Example 138, 3-chloro-N-(2,2-dichloro-1-{[(nitroimino)(3-pyridinylamino)methyl]amino}propyl)benzamide] reads 160 to 161 °C; that for `CC(C)(C)C(NC(=O)c1ccc(Cl)cc1)NC(=NS(=O)(=O)c1ccccc1)Nc1cccnc1` (stereo not shown) [Example 139, 4-chloro-N-(2,2-dimethyl-1-{[[(phenylsulfonyl)imino](3-pyridinylamino)methyl]amino}propyl)benzamide], 196 to 197 °C; that for `CC(C)(C)CC(NC(=O)c1ccc(Cl)cc1)NC(=NS(=O)(=O)c1ccccc1)Nc1cccnc1` (stereo not shown) [Example 140, 4-chloro-N-(3,3-dimethyl-1-{[[(phenylsulfonyl)imino](3-pyridinylamino)methyl]amino}butyl)benzamide], 199 to 200 °C.
`CC(C)(C)C(NC(=O)Nc1ccccc1F)NC(=O)c1ccc(Cl)cc1` (stereo not shown) [Example 147, 4-chloro-N-(1-{[(2-fluoroanilino)carbonyl]amino}-2,2-dimethylpropyl)benzamide]: the melting point was 229 to 230 °C.
On the same count and under the same terms, next, `CCCC(Cl)(Cl)C(NC(=O)c1ccc(Cl)cc1)NC(=C[N+](=O)[O-])Nc1cccnc1` (stereo not shown) [Example 151, 4-chloro-N-(2,2-dichloro-1-{[2-nitro-1-(3-pyridinylamino)ethenyl]amino}pentyl)benzamide]: 185 to 186 °C.
The same measure, in the same setting: next, `CC(C)(C)C(NC(=O)c1ccc(Cl)cc1)NC(Nc1cccnc1)=C(C#N)C#N` (stereo not shown) [Example 152, 4-chloro-N-(1-{[2,2-dicyano-1-(3-pyridinylamino)vinyl]amino}-2,2-dimethylpropyl)benzamide]: 213 to 214 °C; `COc1ncccc1NC(=NC#N)NC(NC(=O)c1cc(F)cc(F)c1)C(C)(Cl)Cl` (stereo not shown) [Example 157, N-[2,2-dichloro-1-({(cyanoimino)[(2-methoxy-3-pyridinyl)amino]methyl}amino)propyl]-3,5-difluorobenzamide]: 125 to 126 °C; `COc1ncccc1NC(=NC#N)NC(NC(=O)c1cc(Cl)cc(Cl)c1)C(C)(Cl)Cl` (stereo not shown) [Example 164, 3,5-dichloro-N-[2,2-dichloro-1-({(cyanoimino)[(2-methoxy-3-pyridinyl)amino]methyl}amino)propyl]benzamide]: 149 to 150 °C.
Same read-out and setting: next, `COc1ccccc1NC(=NC#N)NC(NC(=O)c1ccc(Cl)cc1)C(C)(Cl)Cl` (stereo not shown) [Example 181, 4-chloro-N-(2,2-dichloro-1-{[(cyanoimino)(2-methoxyanilino)methyl]amino}propyl)benzamide]: 185 to 186 °C; `COc1ccc(NC(=NC#N)NC(NC(=O)c2cccc(Cl)c2)C(C)(Cl)Cl)cn1` (stereo not shown) [Example 182, 3-chloro-N-[2,2-dichloro-1-({(cyanoimino)[(6-methoxy-3-pyridinyl)amino]methyl}amino)propyl]benzamide]: 189 to 190 °C; `COc1cc(OC)cc(C(=O)NC(NC(=NC#N)Nc2ccc(C(F)(F)F)nc2)C(C)(Cl)Cl)c1` (stereo not shown) [Example 183, N-{2,2-dichloro-1-[((cyanoimino){[6-(trifluoromethyl)-3-pyridinyl]amino}methyl)amino]propyl}-3,5-dimethoxybenzamide]: 187 to 189 °C.
In turn, `CC(Cl)(Cl)C(NC(=O)c1cc(Cl)cc(Cl)c1)NC(=NS(=O)(=O)C(F)(F)F)Nc1cccnc1` (stereo not shown) [Example 190, 3,5-dichloro-N-{2,2-dichloro-1-[((3-pyridinylamino){[(trifluoromethyl)sulfonyl]imino}methyl)amino]propyl}benzamide] gave a melting point of 213 to 215 °C.
Same read-out and setting: next, `CC(Cl)(Cl)C(NC(=O)c1ccc(C(F)(F)F)cc1)NC(=NS(=O)(=O)C(F)(F)F)Nc1cccnc1` (stereo not shown) [Example 191, N-{2,2-dichloro-1-[((3-pyridinylamino){[(trifluoromethyl)sulfonyl]imino}methyl)amino]propyl}-4-(trifluoromethyl)benzamide]: 214 to 215 °C.
On the same count and under the same terms, next, `CC(Cl)(Cl)C(NC(=O)c1cccnc1)NC(=NC#N)Nc1ccc(Cl)nc1` (stereo not shown) [Example 193, N-(2,2-dichloro-1-{[[(6-chloro-3-pyridinyl)amino](cyanoimino)methyl]amino}propyl)nicotinamide]: 212 to 213 °C.
